Data on 19 molecules can be found in ChEMBL document CHEMBL1134869, “Discovery of potent, selective human granzyme B inhibitors that inhibit CTL mediated apoptosis” (Bioorg Med Chem Lett, 2002).

pKi: −log10 of the molar value. Residues, ends and D or L forms follow the SMILES beside them. Some results are limits rather than exact numbers.

Test [1] has as its target T1, Granzyme B (Homo sapiens, UniProt P10144). The test can be described thus: Compound was tested for its inhibition against human granzyme B; Not active.
Test [2] deals with T1, Granzyme B. The test can be described thus: Inhibition against human granzyme B.
Test [3] can be described thus: Inhibition of CTL mediated apoptosis using humanNK-92 natural killer cells acting on target K-562 cells whose DNA had previously been labeled with [125I]-iododeoxyuridine. The class given is cell-based, Homo sapiens. The conditions noted are these: k562.
The target of a further test is T2, Caspase-3 (Homo sapiens) (UniProt P42574).
T2 sequence (whole entry): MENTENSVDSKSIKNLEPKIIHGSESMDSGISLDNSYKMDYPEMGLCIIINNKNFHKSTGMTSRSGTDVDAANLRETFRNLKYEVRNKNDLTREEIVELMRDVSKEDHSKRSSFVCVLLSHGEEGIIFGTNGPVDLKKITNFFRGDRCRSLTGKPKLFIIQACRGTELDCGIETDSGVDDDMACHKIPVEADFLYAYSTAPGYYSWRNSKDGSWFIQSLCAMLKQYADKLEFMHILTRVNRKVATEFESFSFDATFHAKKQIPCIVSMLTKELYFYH
The test is described as follows: Compound was tested for its inhibition against Caspase-3 at 50 uM; Not active.

T1 sequence (P10144 whole entry): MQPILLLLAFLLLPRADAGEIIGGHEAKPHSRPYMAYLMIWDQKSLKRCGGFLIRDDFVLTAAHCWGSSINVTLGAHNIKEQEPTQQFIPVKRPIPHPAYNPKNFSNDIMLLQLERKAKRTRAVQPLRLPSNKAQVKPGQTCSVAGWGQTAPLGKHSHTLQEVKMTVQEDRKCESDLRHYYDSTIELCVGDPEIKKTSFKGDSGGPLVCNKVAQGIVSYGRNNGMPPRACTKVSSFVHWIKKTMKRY

With `CC[C@H](C)[C@@H](C(=O)N[C@H]1CCc2cccc3c2N(C1=O)[C@H](C(=O)NCc1cc[nH]n1)C3)N(C)C(C)=O`, the Ki result at Granzyme B [1] is “Not Active”.

In the case of `CC[C@H](C)[C@@H](C(=O)N[C@H]1CCc2cccc3c2N(C1=O)[C@H](C(=O)NCc1cn[nH]n1)C3)N(C)C(C)=O`, the pKi at Granzyme B [2] is 7.42; in test [3] it was 7.52. `CC[C@H](C)[C@@H](C(=O)N[C@H]1CCc2cccc3c2N(C1=O)[C@H](C(=O)N[C@@H](CC(=O)O)C(=O)C(=O)OC)C3)N(C)C(C)=O` had a pKi on Granzyme B [2] of 7.80.

At Granzyme B [2], `CC[C@H](C)[C@@H](C(=O)N[C@H]1CCc2cccc3c2N(C1=O)[C@H](C(=O)NCc1cc(=O)[nH]o1)C3)N(C)C(C)=O` gave a pKi of 6.44. On to `CC[C@H](C)[C@@H](C(=O)N[C@H]1CCc2cccc3c2N(C1=O)[C@H](C(=O)NCc1nc[nH]n1)C3)N(C)C(C)=O`, for which the Ki result at Granzyme B [1] is listed as “Not Active”. Take `CC[C@H](C)[C@H](NC(C)=O)C(=O)NCC(=O)N1c2ccccc2C[C@H]1C(=O)N[C@H](C=O)CC(=O)O`: the pKi at Granzyme B [2] was 7.89. In the case of `CC[C@H](C)[C@@H](C(=O)N[C@H]1CCc2cccc3c2N(C1=O)[C@H](C(=O)NCCC(=O)O)C3)N(C)C(C)=O`, the inhibition on Caspase-3 (Homo sapiens) was below 50%. At Granzyme B [2], this molecule showed a pKi of 6.24.

Molecule `CC[C@H](C)[C@H](NC(C)=O)C(=O)N[C@H]1CC[C@H]2CC[C@@H](C(=O)N[C@H](C=O)CC(=O)O)N2C1=O` had a negative logarithm of the Ki (pKi) on Granzyme B [2] of 6.91. As to `CC[C@H](C)[C@@H](C(=O)N[C@H]1CCc2cccc3c2N(C1=O)[C@H](C(=O)NCc1nnn[nH]1)C3)N(C)C(C)=O`, the pKi on Granzyme B [2] was 7.13. Still for that read-out and setting: to `CC[C@H](C)[C@H](NC(C)=O)C(=O)Nc1cccn(CC(=O)N[C@H](C=O)CC(=O)O)c1=O` belongs 6.88. Take `CC[C@H](C)[C@@H](C(=O)N[C@H]1CCc2cccc3c2N(C1=O)[C@H](C(=O)NCc1cn[nH]c1)C3)N(C)C(C)=O`: the Ki entry on Granzyme B [1] is given as “Not Active”.

Consider `CC(C)[C@@H](C(=O)N[C@H]1CCc2cccc3c2N(C1=O)[C@H](C(=O)NCc1cn[nH]n1)C3)c1ccccn1`, for which the pKi on Granzyme B [2] was 7.12; in test [3] it was 7.52. Consider `CC[C@H](C)[C@@H](C(=O)N[C@H]1CCc2cccc3c2N(C1=O)[C@H](C(=O)N[C@@H](CC(=O)O)C(=O)CSCc1ccc(F)cc1)C3)N(C)C(C)=O`, for which the pKi on Granzyme B [2] is 5.64. `CC[C@H](C)[C@H](NC(=O)Cc1csc2ccccc12)C(=O)N[C@H]1CCc2cccc3c2N(C1=O)[C@H](C(=O)NCc1cn[nH]c1)C3`: the pKi was 8.15 at Granzyme B [2] and 8.51 in test [3]. On the same counts, the results for `CC[C@H](C)[C@H](NC(=O)Cc1ccccc1)C(=O)N[C@H]1CCc2cccc3c2N(C1=O)[C@H](C(=O)NCc1cn[nH]c1)C3` are 7.89 and 8.20.

As for `CC[C@H](C)[C@H](NC(C)=O)C(=O)N[C@@H](CCC(=O)O)C(=O)N1CCC[C@H]1C(=O)N[C@H](C=O)CC(=O)O` (Ac-IEPD-aldehyde), at Granzyme B [2], the pKi is 7.10.

For the molecule `CC[C@H](C)[C@H](NC(C)=O)C(=O)NCC(=O)N1CCC[C@H]1C(=O)N[C@H](C=O)CC(=O)O` (Ac-IGPD-aldehyde), at Granzyme B [2], the pKi was 6.57. On the same count and under the same terms, to `CC[C@H](C)[C@@H](C(=O)N[C@H]1CCc2cccc3c2N(C1=O)[C@H](C(=O)N[C@@H](CC(=O)O)C(=O)c1nnc(-c2ccccc2)o1)C3)N(C)C(C)=O` belongs 8.15.

On to `CC[C@H](C)[C@@H](C(=O)N[C@H]1CCc2cccc3c2N(C1=O)[C@H](C(=O)N[C@@H](CC(=O)O)C(=O)c1nc2ccccc2s1)C3)N(C)C(C)=O`, for which, on Granzyme B [2], the pKi is 7.07.
